The values below come from US6228836A, “Permucous preparation” (Mitsubishi-Tokyo Pharmaceuticals, Inc., priority 1997, dated 2001).

Details of the data set: species or system rats. The settings on record: rat, in vivo. How it is done:
Eight-week-old female rats were used, with five per group. The rats were administered 100 μL/kg of the test sample into the nasal cavities once a day, for 7 continuous days. On the 8th day the nasal cavities were extracted, and after dividing them into 3 parts from the nasal cavity opening to the deep end of the nasal cavity, they were fixed with formalin to prepare specimens. After 10-14 days of fixing, a histopathological examination was made of the state of the mucosa, exudation and any bleeding.
Mild irritation was judged when abnormalities were found in the nasal mucosa at sections near the nasal cavity opening, and moderate to severe irritation was judged when the sections where abnormalities were found were further to the deep end. Moderate or greater irritation was also judged when degeneration, ablation, exudation or bleeding was found on the nasal mucosa epithelium at sections near the nasal cavity opening.
As controls there were used physiological saline and commercially available desmopressin (Kyowa Hakko Kogyo, KK.)

Take `NC(=O)CC[C@@H]1NC(=O)[C@H](Cc2ccccc2)NC(=O)[C@H](Cc2ccc(O)cc2)NC(=O)CCSSC[C@@H](C(=O)N2CCC[C@H]2C(=O)N[C@H](CCCN=C(N)N)C(=O)NCC(N)=O)NC(=O)[C@H](CC(N)=O)NC1=O` [Desmopressin, desmopressin]: the “Nasal cavity mucosa irritation: Mild” value was 0, the “Nasal cavity mucosa irritation: Moderate” value is on record as 0, the “Nasal cavity mucosa irritation: Normal” value worked out at 5 and the “Nasal cavity mucosa irritation: Severe” value was determined as 0. Moreover, the “Nasal mucosa irritation, histopathological finding / judgement (in words)” value is listed as “No irritation”.

As for `C[C@H](CCC(=O)O)[C@H]1CC[C@H]2[C@@H]3CC[C@@H]4C[C@H](O)CC[C@]4(C)[C@H]3C[C@H](O)[C@]12C` [sodium deoxycholate], the “Nasal mucosa irritation, histopathological finding / judgement (in words)” value was “irritating effect on the nasal cavity mucosa”.
